# Assay results reported in patent US8785483B2, “Methods for treating COPD” (The Board of Regents of the University of Texas System, priority 2010, dated 2014).
# Assays:
# [1] = test system: airway epithelial cell monolayer (SAEC at ALI); assay: Air-liquid interface culture: IL-13-induced loss of cilia and goblet cell metaplasia (H&E, PAS, β-tubulin and Muc5AC immunostaining); format: cell-based, human
# Description: FIGS. 4A-4B. AR inhibition prevents IL-13-induced loss of cilia and β-tubulin in airway epithelial cell monolayer. Approximately 8.5×10^4 SAEC were seeded per 12 mm diameter PET transparent insert and cultured for 7 days in differentiation media supplied from both lower and upper sides followed by culture on ALI for 11 days for differentiation into ciliated cells. The monolayer was treated with AR inhibitor for overnight and stimulated with IL-13 for 48 h. The monolayers on the membrane inserts were fixed for 24 h in z-fix (10% buffered formalin with zinc) at 4° C., paraffin embedded and […] sections were cut. (A) The H&E stained sections were examined under the light microscope; magnification 400×. […] (B) Immunohistochemistry using β-tubulin antibodies was performed on the sections. Dark brown staining in the monolayer corresponds to cilia axoneme β-tubulin. Arrows show loss of β-tubulin as the ciliated cells transform into goblet cells. A representative photomicrograph has been shown (n=4); magnification 400×. FIGS. 5A-5B. AR inhibition prevents IL-13-induced goblet cell metaplasia and expression of Muc5AC in airway epithelial monolayer. (A) The well-differentiated airway epithelial cells at air-liquid interface (ALI) were incubated with IL-13 for 48 h without or with AR inhibitor, fidarestat. The monolayer was fixed as described and immunohistochemistry using Muc5AC antibodies was performed on the sections. A representative photomicrograph is shown (n=4); magnification 400×. […] (C) The airway epithelial monolayer was incubated with IL-13 submerged in basal medium for 48 h in the absence and presence of AR inhibitor, fidarestat. The culture medium was collected from the top chamber and utilized for determination of Muc5AC by an ELISA, (n=4); *p<0.005 vs Control; **p<0.01 vs IL-13. For air-liquid interface (ALI) culture, SAEC were seeded at 8.5×10^4 cells/12-mm-diameter PET transparent insert with […] pores (12-well millicell culture insert; Millipore) and pre-coated with rat tail collagen type-1 (Sigma-Aldrich). The cells were grown submerged in the differentiation medium as described earlier by Zhen et al. (Am J Respir Cell Mol Biol 36: 244-253, 2007). The differentiation medium contained a 1:1 mixture of DMEM and small airway epithelial growth medium supplemented as described above, except that gentamycin sulfate, amphotericin B, and triiodothyronine were replaced with 1% penicillin/streptomycin, and 50 nM all-trans retinoic acid. The SAEC were maintained submerged for the first 7 days, after which the apical medium was removed and an air-liquid interface culture was established. […] The stained sections were analyzed and representative fields were photographed using a Photometrix CoolSNAP Fx camera mounted on a NIKON Eclipse TE 200 UV microscope. […]
# STAT-6 = assay: RWE-induced STAT-6 phosphorylation in mouse lung epithelium (immunostaining); format: in vivo; conditions: RWE-sensitized and challenged mice, fidarestat 7 mg/kg body wt/day in drinking water, 20 h after challenge
# Description: FIGS. 9A-9B. AR inhibition prevents phosphorylation of STAT-6 in mouse lung epithelium. The mice were sensitized and challenged with PBS or RWE, without or with AR inhibitor and 20 h later lungs were perfused and fixed with 4% paraformaldehyde, embedded in paraffin, and sectioned to […]. The sections were immunostained with p-STAT-6 specific antibodies using immunofluoroscence secondary antibodies (A) or DAB-based HRP conjugated antibodies counterstained with hematoxylin and eosin (B). Photomicrographs were acquired by fluorescence or light microscopy. A representative field for each group is shown (magnification: 200×). […] RWE, ragweed pollen extract; ARI, aldose reductase inhibitor.
# Wild type C57BL/6 and Balb/cJ mice were purchased from Harlan Sprague-Dawley (San Diego, Calif., USA) and AR null mice on C57BL/6 background were bread by us at Animal resource center, UTMB, Galveston, Tex. Six-eight weeks old female mice were sensitized with RWE as previously described (Hwang et al., FASEB J. 19: 795-797, 2005). […]
# Approximately 20 h after RWE-challenge, mice are killed, and their lungs perfused and fixed with 4% paraformaldehyde, embedded in paraffin, and 5 μm sections were obtained. […] Photomicrographs were acquired by a Photometrix CoolSNAP Fx camera mounted on a NIKON Eclipse TE 200 UV microscope using fluorescence or bright-field microscopy, respectively.
compound,measurement,setting,value
"NC(=O)[C@@H]1C[C@]2(NC(=O)NC2=O)c2cc(F)ccc2O1 [fidarestat, (2S,4S)-2-aminoformyl-6-fluoro-spiro[chroman-4,4′-imidazolidine]-2′,5′-dione]",decrease in number of Muc5AC positive cells,"[1]; IL-13 48 h, Muc5AC immunostaining",~70%
same,ciliated morphology (β-tubulin immunostaining) after IL-13,"[1]; fidarestat 10 μM overnight, IL-13 25 ng/ml 48 h",preserved the ciliated morphology
same,differentiation of airway cells into goblet cells (PAS staining),"[1]; inhibitor added prior to IL-13 challenge, 48 h, data not shown",prevented the airway cells from differentiating into goblet cells
same,toxic effects of AR inhibitor alone on monolayer of ciliated cells,"[1]; inhibitor alone, no IL-13",no toxic effects
same,RWE-induced phospho-STAT-6 staining in lung epithelium,STAT-6,prevented by AR inhibition
